# Test results as given in the RepoRT retention time repository.
# Assay: Agilent ZORBAX 300 SB-C18, 150 × 1 mm, 3.5 µm; A: water + 0.01% heptafluorobutyric acid; B: acetonitrile + 0.01% heptafluorobutyric acid; gradient (min/%B) 0/0 100/90
# Details: stereoisomer not certain
row,LC retention time [min],SMILES
1,7.89,CC(=O)Nc1c2ccccc2nc2ccccc12
2,9.55,C=CCNc1ccccc1
3,9.59,COC(=O)c1cccc(N=C2N=C(N)c3ccccc32)c1
4,8.94,c1ccc2nccnc2c1
5,13,c1ccc(N2CCN(c3ccccc3)C2c2cccnc2)cc1
6,17.1,Cc1cccc(-c2nnc(-c3ccccc3C)o2)c1
7,12.3,COc1cccc2c1NC(C)(C)CC2C (centres undefined)
8,9.69,Cc1cc2n[nH]nc2cc1C
9,11,c1ccc(CN(c2ccccn2)c2ccccn2)cc1
10,7.67,O=C(O)c1ccc2nccnc2c1
11,7.06,Nc1cccc(CCC(=O)O)c1
12,5.93,Nc1ccc(C(=O)O)cc1N
13,9.23,c1ccc(Cc2nc3ccccc3[nH]2)cc1
14,11.9,CC(C)CNc1c(N)c(=O)oc2ccccc12
15,7.13,c1nc2cc3ncc[nH]c3cc2n1
16,5.35,c1cncc(-c2nn[nH]n2)c1
17,6.66,Cc1ccc(C)nc1
18,11.4,Oc1ccc(-c2cnc3ccccc3n2)cc1
19,8.51,O=C1Cc2ccccc2N1
20,5.96,O=C(O)c1c2c(nc3ccccc13)CCCC2
21,8.76,CCc1c(C)nc2c(O)cccn2c1=O
22,18.4,CCc1ccc(C(=O)CC(Nc2ccccc2)c2ccccc2)cc1 (centres undefined)
23,8.16,O=C(O)c1cc(-c2ccncc2)nc2ccccc12
24,10.4,CC(=O)C=C(N)c1ccccc1
25,9.97,O=C(O)C=CC(=O)N1CCc2ccccc21
26,16.8,c1ccc(Cn2ccc3ccccc32)cc1
27,8.16,Cc1c(-c2nc3ccccc3[nH]2)cnn1C
28,7.36,Cc1nc2ccccc2[nH]1

# Continued, molecule first:
row,SMILES,LC retention time [min]
1,CN1CCCCC1=O,7.29
2,C[N+](C)(C)CCOC(=O)c1ccccc1,8.36
3,CCNCC(O)CC (centres undefined),6.36
4,CCOC(=O)C1=CN(c2cc(C)ccc2C)C=C(C(=O)OCC)C1c1cccc(C)c1,21.5
5,NCC1(O)CCCCC1,7.06
6,COC(=O)CCc1c(COC(C)=O)[nH]c(C(=O)OCc2ccccc2)c1C,15.1
7,CC(=O)Nc1cc(=O)[nH]c(C)n1,5.68
8,Cn1c(=O)cc(C(=O)O)[nH]c1=O,1.57
9,O=C(NNC(=O)C1CCCCC1C(=O)O)C(c1ccccc1)c1ccccc1 (centres undefined),11.8
10,CC(C)CNC(=O)C(=O)NC1CC(C)(C)NC(C)(C)C1,8.6
11,CNC1CCCCC1,7.45
12,CCn1c(C)c(C(C)=O)c(C(C)=O)c1C,9.56
13,COC(=O)c1ccccc1-c1cc(C(=O)OC)c2ccccc2n1,15
14,CCOC(=O)c1ccc2c(c1)C(=O)N(c1cccc3ccccc13)C2=O,16.2
15,CCCN1CCCCC1C(=O)Nc1c(C)cccc1C (centres undefined),9.88
16,Nc1ccc(NC(=O)Nc2ccc(N)cc2)cc1,7.24
17,O=S(=O)(O)CCN1CCOCC1,1.67
18,CCC(c1ccc(C)cc1)N(NC(=O)C(O)(c1ccc(C)cc1)c1ccc(C)cc1)C(=O)c1ccccc1 (centres undefined),18.3
19,O=C(C[n+]1ccccc1)C1CC1,6.91
20,CC(=O)Nc1c(C)cc(C)cc1N,7.92
21,CCCCSCCSC(=N)N,9.27
22,COc1cccc(C2C3=C(CC(C)(C)CC3=O)OC3=C2C(=O)CC(C)(C)C3)c1OC,16.5
23,NCC(O)CO (centres undefined),2.77
24,O=S(=O)(O)CCCN1CCOCC1,1.67
25,CC(C)NCCN(CCNC(C)C)CCNC(C)C,7.84
26,CC(C)CN,6.34
